Source: PMC9966414, “Pharmacological Profiling of KATP Channel Modulators: An Outlook for New Treatment Opportunities for Migraine” (Pharmaceuticals, 2023)

Experiments:
Kir6.1/SUR2B = target: T1, Kir6.1/SUR2B (Homo sapiens, UniProt O60706+Q15842); assay: thallium-flux fluorescence assay (FLIPR, BTC/AM); assay type: cell-based
T1 construct: gene KCNJ8; full-length human subunits co-expressed stably in HEK293 cells; GenScript vectors; four Kir6.1 plus four SUR2B
Excerpt: thallium-flux fluorescence assay (FLIPR, BTC/AM) on Kir6.1/SUR2B

Kir6.2/SUR2A = target: T2, Kir6.2/SUR2A (Homo sapiens, UniProt O60706+Q14654); assay: thallium-flux fluorescence assay (FLIPR, BTC/AM); assay type: cell-based
T2 construct: gene KCNJ11; full-length human subunits co-expressed stably in HEK293 cells; GenScript vectors; four Kir6.2 plus four SUR2A
T2 sequence (Q14654 whole entry): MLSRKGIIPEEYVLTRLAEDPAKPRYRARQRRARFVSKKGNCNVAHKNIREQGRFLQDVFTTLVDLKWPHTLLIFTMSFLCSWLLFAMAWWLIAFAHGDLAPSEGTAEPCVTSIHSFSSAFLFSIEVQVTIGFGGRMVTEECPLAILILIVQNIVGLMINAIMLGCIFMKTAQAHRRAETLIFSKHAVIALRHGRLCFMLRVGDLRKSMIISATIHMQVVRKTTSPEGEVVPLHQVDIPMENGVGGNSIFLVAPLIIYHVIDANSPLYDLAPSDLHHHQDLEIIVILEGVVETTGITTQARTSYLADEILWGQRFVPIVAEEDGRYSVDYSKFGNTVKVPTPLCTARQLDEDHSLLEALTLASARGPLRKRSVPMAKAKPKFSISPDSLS
T2 sequence (O60706 whole entry): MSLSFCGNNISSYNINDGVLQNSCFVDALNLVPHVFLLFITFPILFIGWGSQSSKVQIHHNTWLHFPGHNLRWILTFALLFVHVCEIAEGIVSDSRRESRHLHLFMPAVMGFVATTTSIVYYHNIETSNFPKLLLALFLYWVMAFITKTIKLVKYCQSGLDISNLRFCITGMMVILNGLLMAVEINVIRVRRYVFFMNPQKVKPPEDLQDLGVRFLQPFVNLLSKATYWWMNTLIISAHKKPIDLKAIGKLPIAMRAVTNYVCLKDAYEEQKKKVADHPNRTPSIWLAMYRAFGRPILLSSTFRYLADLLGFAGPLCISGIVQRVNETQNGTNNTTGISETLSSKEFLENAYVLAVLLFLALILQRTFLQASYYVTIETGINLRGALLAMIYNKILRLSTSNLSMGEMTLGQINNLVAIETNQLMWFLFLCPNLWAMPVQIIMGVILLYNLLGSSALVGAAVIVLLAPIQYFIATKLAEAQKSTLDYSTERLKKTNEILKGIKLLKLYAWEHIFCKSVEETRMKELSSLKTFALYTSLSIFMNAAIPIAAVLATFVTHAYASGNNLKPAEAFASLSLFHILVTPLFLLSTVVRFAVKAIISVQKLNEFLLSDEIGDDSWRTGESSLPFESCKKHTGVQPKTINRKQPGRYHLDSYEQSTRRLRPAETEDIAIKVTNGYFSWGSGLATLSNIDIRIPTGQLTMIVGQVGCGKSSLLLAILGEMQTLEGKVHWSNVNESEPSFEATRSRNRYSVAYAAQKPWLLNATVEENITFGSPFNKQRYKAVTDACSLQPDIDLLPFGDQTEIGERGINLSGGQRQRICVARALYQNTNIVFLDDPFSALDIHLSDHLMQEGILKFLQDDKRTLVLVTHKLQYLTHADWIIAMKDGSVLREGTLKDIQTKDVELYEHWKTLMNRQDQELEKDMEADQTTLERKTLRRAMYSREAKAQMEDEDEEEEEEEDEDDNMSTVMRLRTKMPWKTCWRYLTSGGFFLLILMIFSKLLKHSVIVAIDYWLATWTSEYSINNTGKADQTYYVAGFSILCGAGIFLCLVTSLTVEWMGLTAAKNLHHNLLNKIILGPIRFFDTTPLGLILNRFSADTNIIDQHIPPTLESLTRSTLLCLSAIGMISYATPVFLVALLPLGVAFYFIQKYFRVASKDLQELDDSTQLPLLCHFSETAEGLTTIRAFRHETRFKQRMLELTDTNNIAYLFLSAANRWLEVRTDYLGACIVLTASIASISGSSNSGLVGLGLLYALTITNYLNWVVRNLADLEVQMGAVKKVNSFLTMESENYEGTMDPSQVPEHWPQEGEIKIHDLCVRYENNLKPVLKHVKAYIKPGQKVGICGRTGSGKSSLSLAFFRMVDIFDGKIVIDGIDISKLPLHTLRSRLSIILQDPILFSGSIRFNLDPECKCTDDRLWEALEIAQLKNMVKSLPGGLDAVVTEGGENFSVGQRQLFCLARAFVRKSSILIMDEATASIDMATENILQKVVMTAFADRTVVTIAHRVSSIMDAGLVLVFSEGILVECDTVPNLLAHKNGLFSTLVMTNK
Excerpt: (§1) thallium-flux fluorescence assay (FLIPR, BTC/AM) on Kir6.2/SUR2A

Kir6.2/SUR1 = target: T3, Kir6.2/SUR1 (Homo sapiens, UniProt Q09428+Q14654); assay: thallium-flux fluorescence assay (FLIPR, BTC/AM); assay type: cell-based
T3 construct: gene KCNJ11; full-length human subunits co-expressed stably in HEK293 cells; GenScript vectors; four Kir6.2 plus four SUR1
T3 sequence (Q14654 whole entry): as the sequence (Q14654 whole entry) above
T3 sequence (Q09428 whole entry): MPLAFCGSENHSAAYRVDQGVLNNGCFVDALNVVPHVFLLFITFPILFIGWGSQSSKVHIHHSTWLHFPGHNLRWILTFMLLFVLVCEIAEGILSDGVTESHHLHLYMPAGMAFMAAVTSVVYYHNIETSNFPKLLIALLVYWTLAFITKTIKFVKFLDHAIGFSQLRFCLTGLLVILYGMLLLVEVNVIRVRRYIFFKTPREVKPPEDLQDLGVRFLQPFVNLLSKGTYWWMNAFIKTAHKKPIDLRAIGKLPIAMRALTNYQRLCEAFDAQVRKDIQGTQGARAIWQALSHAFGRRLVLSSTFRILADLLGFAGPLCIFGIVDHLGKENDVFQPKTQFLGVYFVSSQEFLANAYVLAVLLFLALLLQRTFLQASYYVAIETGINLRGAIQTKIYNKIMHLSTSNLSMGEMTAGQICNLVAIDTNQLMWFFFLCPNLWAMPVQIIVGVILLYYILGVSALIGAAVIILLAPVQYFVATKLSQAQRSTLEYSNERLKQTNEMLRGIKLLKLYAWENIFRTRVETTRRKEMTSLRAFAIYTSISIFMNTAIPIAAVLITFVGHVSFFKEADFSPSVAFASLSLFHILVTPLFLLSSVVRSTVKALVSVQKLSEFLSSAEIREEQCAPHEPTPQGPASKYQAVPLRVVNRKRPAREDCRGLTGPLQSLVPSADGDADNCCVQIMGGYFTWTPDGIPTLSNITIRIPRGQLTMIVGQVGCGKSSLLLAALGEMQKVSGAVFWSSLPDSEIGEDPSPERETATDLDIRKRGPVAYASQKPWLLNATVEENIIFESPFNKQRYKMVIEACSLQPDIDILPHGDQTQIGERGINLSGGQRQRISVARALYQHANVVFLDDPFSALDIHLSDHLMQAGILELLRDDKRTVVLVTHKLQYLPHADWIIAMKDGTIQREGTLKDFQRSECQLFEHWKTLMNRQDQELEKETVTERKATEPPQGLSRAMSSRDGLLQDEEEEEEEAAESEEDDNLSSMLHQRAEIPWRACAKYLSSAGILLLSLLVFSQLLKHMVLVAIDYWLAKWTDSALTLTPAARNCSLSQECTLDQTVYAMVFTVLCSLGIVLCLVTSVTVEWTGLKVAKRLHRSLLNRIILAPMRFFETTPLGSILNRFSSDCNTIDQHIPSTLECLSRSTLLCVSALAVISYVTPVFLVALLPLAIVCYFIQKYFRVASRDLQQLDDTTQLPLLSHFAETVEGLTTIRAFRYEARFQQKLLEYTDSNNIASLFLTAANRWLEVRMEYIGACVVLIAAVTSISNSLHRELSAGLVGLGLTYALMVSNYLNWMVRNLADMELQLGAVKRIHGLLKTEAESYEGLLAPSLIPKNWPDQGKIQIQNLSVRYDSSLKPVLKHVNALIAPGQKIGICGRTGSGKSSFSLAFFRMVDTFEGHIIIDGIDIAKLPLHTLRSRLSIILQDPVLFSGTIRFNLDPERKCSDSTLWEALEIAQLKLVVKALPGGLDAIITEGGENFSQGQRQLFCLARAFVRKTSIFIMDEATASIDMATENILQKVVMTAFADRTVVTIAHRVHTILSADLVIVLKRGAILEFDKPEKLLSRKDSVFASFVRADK
Excerpt: thallium-flux fluorescence assay (FLIPR, BTC/AM) on Kir6.2/SUR1

[1] = thallium-flux fluorescence assay (FLIPR, BTC/AM); assay type: cell-based, Homo sapiens; conditions: read-out: Kir6.1/SUR2B / EC50
Excerpt: as §1

[2] = thallium-flux fluorescence assay (FLIPR, BTC/AM); assay type: cell-based, Homo sapiens; conditions: read-out: Kir6.2/SUR1 / IC50

Row | Structure (SMILES) | EC50 (Kir6.1/SUR2B) [nM] | IC50 (Kir6.1/SUR2B) [nM] | IC50 (Kir6.2/SUR2A) [nM] | IC50 (Kir6.2/SUR1) [nM] | further results
1 | O=C1CCCC2=C1[C@H](c1ccc(F)c(Br)c1)C1=C(CCS1(=O)=O)N2 [A-278637] | 170 ± 89 | – | – | – | EC50 (Kir6.2/SUR2A): 1600 ± 890 nM; EC50 (Kir6.2/SUR1): > 30000 nM
2 | CC1(C)Oc2ccc(C#N)cc2[C@H](N(Cc2ncc[nH]2)c2ccc(Cl)cc2)[C@H]1O [BMS-191095] | > 30000 | – | – | – | EC50 [1]: > 30000 nM
3 | CC1=NS(=O)(=O)c2cc(Cl)ccc2N1 [Diazoxide] | 9700 ± 5700 | – | – | – | EC50 (Kir6.2/SUR2A): > 100000 nM
4 | COc1ccc(Cl)cc1C(=O)NCCc1ccc(S(=O)(=O)NC(=O)NC2CCCCC2)cc1 [Glibenclamide] | – | 21 ± 14 | 9.9 ± 4.1 | – | –
5 | Cc1ccc(S(=O)(=O)NC(=O)NN2CC3CCCC3C2)cc1 (centres unmarked) [Gliclazide] | – | 24000 ± 11000 | 55000 ± 22000 | 610 ± 450 | –
6 | CCC1=C(C)CN(C(=O)NCCc2ccc(S(=O)(=O)NC(=O)N[C@H]3CC[C@H](C)CC3)cc2)C1=O [Glimepiride] | – | 33 ± 23 | 17 ± 9 | 2.3 ± 1.2 | –
7 | COc1ccc2c(c1)C(=O)N(CCc1ccc(S(=O)(=O)NC(=O)NC3CCCCC3)cc1)C(=O)C2(C)C [Gliquidone] | – | 4500 ± 3600 | 780 ± 580 | 6.9 ± 5 | –
8 | CC1(NC2=NS(=O)(=O)c3sc(Cl)cc3N2)CC1 [NN414] | > 30000 | – | – | – | –
9 | CC(C)[C@H]1CC[C@H](C(=O)N[C@H](Cc2ccccc2)C(=O)O)CC1 [Nateglinide] | – | 14000 ± 6700 | 16000 ± 7300 | 44 ± 13 | –
10 | CCC(C)(C)NC(=NC#N)Nc1cccnc1 [P1075] | 52 ± 24 | – | – | – | EC50 (Kir6.2/SUR2A): 510 ± 270 nM; EC50 (Kir6.2/SUR1): > 30000 nM
11 | C1CCC(/N=C(\NC23CC4CC(CC(C4)C2)C3)N2CCOCC2)CC1 [PNU-37883A] | – | 290 ± 210 | – | > 100000 | IC50 [2]: > 100000 nM
12 | CC(N/C(=N\C#N)Nc1ccncc1)C(C)(C)C (centres unmarked) [Pinacidil] | – | – | – | – | EC50 (Kir6.2/SUR1): > 30000 nM
13 | CCOc1cc(CC(=O)N[C@@H](CC(C)C)c2ccccc2N2CCCCC2)ccc1C(=O)O [Repaglinide] | – | 1.1 ± 0.6 | 0.94 ± 0.46 | 3.9 ± 1.4 | –
14 | CN(CCOc1ccc(CC2SC(=O)NC2=O)cc1)c1ccccn1 (centres unmarked) [Rosiglitazone] | – | 8500 ± 4600 | – | > 100000 | IC50 [2]: > 100000 nM
15 | CCCCNC(=O)NS(=O)(=O)c1ccc(C)cc1 [Tolbutamide] | – | 41000 ± 11000 | 71000 ± 12000 | 7500 ± 4100 | –
16 | Cc1c(C)c2c(c(C)c1O)CCC(C)(COc1ccc(CC3SC(=O)NC3=O)cc1)O2 (centres unmarked) [Troglitazone] | – | 10000 ± 6500 | 30000 ± 16000 | 14000 ± 3100 | –
17 | CC(=O)N(O)[C@@H]1c2cc(C#N)ccc2OC(C)(C)[C@H]1O [Y-26763] | 75 ± 42 | – | – | – | EC50 (Kir6.2/SUR2A): 1300 ± 970 nM; EC50 (Kir6.2/SUR1): 4100 ± 2100 nM
18 | CC(O)(C(=O)Nc1ccc(S(=O)(=O)c2ccccc2)cc1)C(F)(F)F (centres unmarked) [ZM226600] | 150 ± 90 | – | – | – | EC50 (Kir6.2/SUR2A): 2800 ± 2200 nM; EC50 (Kir6.2/SUR1): > 30000 nM
